Tests used:
Assay type in all cases: in vivo
[1] = tested on: surinam grass (Brachiaria decumbens); test: Test E pre-/postemergence greenhouse herbicide test; conditions: Preemergence, scale 0 to 100
corn (Zea mays) = test: as above; conditions: scale 0 to 100
Procedure, shortened: (§1)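 Formulated test chemical (solvent mixture with surfactant) is applied preemergence to seeded silt loam and postemergence to plants at 1- to 4-leaf stage grown in peat-based medium. Greenhouse holding 14 to 21 d; response scored visually, 0 no effect to 100 complete control.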

[2] = tested on: crabgrass, Brazil (Brazilian crabgrass, Digitaria horizontalis); test: as above; conditions: scale 0 to 100
Procedure, shortened: as §1

[3] = tested on: dayflower, VA (Virginia dayflower, Commelina virginica); test: as above; conditions: scale 0 to 100
Procedure, shortened: as §1

[4] = tested on: foxtail, green (green foxtail, Setaria viridis); test: as above; conditions: Preemergence, scale 0 to 100
Procedure, shortened: as §1

[5] = tested on: johnsongrass (Sorghum halepense); test: as above; conditions: Preemergence, scale 0 to 100
Procedure, shortened: as §1

[6] = tested on: lambsquarters (Chenopodium album); test: as above; conditions: Preemergence, scale 0 to 100
Procedure, shortened: as §1

[7] = tested on: smartweed (ladysthumb smartweed, Polygonum persicaria); test: as above; conditions: scale 0 to 100
Procedure, shortened: as §1

soybean (Glycine max) = test: as above; conditions: scale 0 to 100
Procedure, shortened: as §1

[8] = tested on: waterhemp_RES1 (ALS & Triazine resistant common waterhemp, Amaranthus rudis); test: Test E postemergence greenhouse herbicide test; conditions: scale 0 to 100
Procedure: (§2) At the same time, plants from these crop and weed species and also waterhemp_RES1, (ALS & Triazine resistant common waterhemp, Amaranthus rudis), and waterhemp_RES2, (ALS & HPPD resistant common waterhemp, Amaranthus rudis) were planted in pots containing Redi-Earth® planting medium (Scotts Company, 14111 Scottslawn Road, Marysville, Ohio 43041) comprising spaghnum peat moss, vermiculite, wetting agent and starter nutrients were treated with postemergence applications of test chemicals formulated in the same manner. Plants ranged in height from 2 to 18 cm for postemergence treatments (1- to 4-leaf stage). Treated plants and controls were maintained in a greenhouse for 14 to 21 d, after which time all species were compared to controls and visually evaluated. Plant response ratings, summarized in Table E, are based on a scale of 0 to 100 where 0 is no effect and 100 is complete control. A dash (-) response means no test result.

[9] = tested on: waterhemp_RES2 (ALS & HPPD resistant common waterhemp, Amaranthus rudis); test: Test E postemergence greenhouse herbicide test; conditions: scale 0 to 100
Procedure: as §2

SMILES: COc1cc(=O)n(-c2ccc(F)cc2)nc1Cc1ccnc(C(F)(F)F)c1 [Compound 17, 2-(4-fluorophenyl)-5-methoxy-6-[[2-(trifluoromethyl)-4-pyridinyl]methyl]-3 (2H)-pyridazinone]
- Plant response rating: Surinam Grass ([1]; 16 g ai/ha): 0
- Plant response rating: Surinam Grass ([1]; 31 g ai/ha): 20
- Plant response rating: Surinam Grass ([1]; 62 g ai/ha): 65
- Plant response rating: Surinam Grass ([1]; 125 g ai/ha): 75
- Plant response rating: Surinam Grass ([1]; 250 g ai/ha): 75
- Plant response rating: Corn (corn (Zea mays); Postemergence, 16 g ai/ha): 0
- Plant response rating: Corn (corn (Zea mays); Postemergence, 31 g ai/ha): 10
- Plant response rating: Corn (corn (Zea mays); Postemergence, 62 g ai/ha): 10
- Plant response rating: Corn (corn (Zea mays); Postemergence, 125 g ai/ha): 35
- Plant response rating: Corn (corn (Zea mays); Postemergence, 250 g ai/ha): 65
- Plant response rating: Corn (corn (Zea mays); Preemergence, 16 g ai/ha): 0
- Plant response rating: Corn (corn (Zea mays); Preemergence, 31 g ai/ha): 0
- Plant response rating: Corn (corn (Zea mays); Preemergence, 62 g ai/ha): 30
- Plant response rating: Corn (corn (Zea mays); Preemergence, 125 g ai/ha): 65
- Plant response rating: Corn (corn (Zea mays); Preemergence, 250 g ai/ha): 80
- Plant response rating: Crabgrass, Brazil ([2]; Postemergence, 16 g ai/ha): 20
- Plant response rating: Crabgrass, Brazil ([2]; Postemergence, 31 g ai/ha): 20
- Plant response rating: Crabgrass, Brazil ([2]; Postemergence, 62 g ai/ha): 20
- Plant response rating: Crabgrass, Brazil ([2]; Postemergence, 125 g ai/ha): 30
- Plant response rating: Crabgrass, Brazil ([2]; Postemergence, 250 g ai/ha): 70
- Plant response rating: Crabgrass, Brazil ([2]; Preemergence, 16 g ai/ha): 100
- Plant response rating: Crabgrass, Brazil ([2]; Preemergence, 31 g ai/ha): 100
- Plant response rating: Crabgrass, Brazil ([2]; Preemergence, 62 g ai/ha): 100
- Plant response rating: Crabgrass, Brazil ([2]; Preemergence, 125 g ai/ha): 100
- Plant response rating: Crabgrass, Brazil ([2]; Preemergence, 250 g ai/ha): 100
- Plant response rating: Dayflower, VA ([3]; Postemergence, 16 g ai/ha): 10
- Plant response rating: Dayflower, VA ([3]; Postemergence, 31 g ai/ha): 10
- Plant response rating: Dayflower, VA ([3]; Postemergence, 62 g ai/ha): 15
- Plant response rating: Dayflower, VA ([3]; Postemergence, 125 g ai/ha): 30
- Plant response rating: Dayflower, VA ([3]; Postemergence, 250 g ai/ha): 40
- Plant response rating: Dayflower, VA ([3]; Preemergence, 16 g ai/ha): 0
- Plant response rating: Dayflower, VA ([3]; Preemergence, 31 g ai/ha): 10
- Plant response rating: Dayflower, VA ([3]; Preemergence, 62 g ai/ha): 20
- Plant response rating: Dayflower, VA ([3]; Preemergence, 250 g ai/ha): 80
- Plant response rating: Foxtail, Green ([4]; 16 g ai/ha): 0
- Plant response rating: Foxtail, Green ([4]; 31 g ai/ha): 50
- Plant response rating: Foxtail, Green ([4]; 62 g ai/ha): 75
- Plant response rating: Foxtail, Green ([4]; 125 g ai/ha): 75
- Plant response rating: Foxtail, Green ([4]; 250 g ai/ha): 100
- Plant response rating: Johnsongrass ([5]; 16 g ai/ha): 0
- Plant response rating: Johnsongrass ([5]; 31 g ai/ha): 10
- Plant response rating: Johnsongrass ([5]; 62 g ai/ha): 35
- Plant response rating: Johnsongrass ([5]; 125 g ai/ha): 75
- Plant response rating: Johnsongrass ([5]; 250 g ai/ha): 90
- Plant response rating: Lambsquarters ([6]; 16 g ai/ha): 98
- Plant response rating: Lambsquarters ([6]; 31 g ai/ha): 98
- Plant response rating: Lambsquarters ([6]; 62 g ai/ha): 98
- Plant response rating: Lambsquarters ([6]; 125 g ai/ha): 98
- Plant response rating: Lambsquarters ([6]; 250 g ai/ha): 100
- Plant response rating: Smartweed ([7]; Postemergence, 16 g ai/ha): 10
- Plant response rating: Smartweed ([7]; Postemergence, 31 g ai/ha): 15
- Plant response rating: Smartweed ([7]; Postemergence, 62 g ai/ha): 30
- Plant response rating: Smartweed ([7]; Postemergence, 125 g ai/ha): 40
- Plant response rating: Smartweed ([7]; Postemergence, 250 g ai/ha): 60
- Plant response rating: Smartweed ([7]; Preemergence, 16 g ai/ha): 0
- Plant response rating: Smartweed ([7]; Preemergence, 31 g ai/ha): 0
- Plant response rating: Smartweed ([7]; Preemergence, 62 g ai/ha): 0
- Plant response rating: Smartweed ([7]; Preemergence, 125 g ai/ha): 20
- Plant response rating: Smartweed ([7]; Preemergence, 250 g ai/ha): 75
- Plant response rating: Soybean (soybean (Glycine max); Postemergence, 16 g ai/ha): 30
- Plant response rating: Soybean (soybean (Glycine max); Postemergence, 31 g ai/ha): 30
- Plant response rating: Soybean (soybean (Glycine max); Postemergence, 62 g ai/ha): 50
- Plant response rating: Soybean (soybean (Glycine max); Postemergence, 125 g ai/ha): 60
- Plant response rating: Soybean (soybean (Glycine max); Postemergence, 250 g ai/ha): 85
- Plant response rating: Soybean (soybean (Glycine max); Preemergence, 16 g ai/ha): 0
- Plant response rating: Soybean (soybean (Glycine max); Preemergence, 31 g ai/ha): 0
- Plant response rating: Soybean (soybean (Glycine max); Preemergence, 62 g ai/ha): 0
- Plant response rating: Soybean (soybean (Glycine max); Preemergence, 125 g ai/ha): 65
- Plant response rating: Soybean (soybean (Glycine max); Preemergence, 250 g ai/ha): 80
- Plant response rating: Waterhemp_RES1 ([8]; 16 g ai/ha): 50
- Plant response rating: Waterhemp_RES1 ([8]; 31 g ai/ha): 60
- Plant response rating: Waterhemp_RES1 ([8]; 62 g ai/ha): 60
- Plant response rating: Waterhemp_RES1 ([8]; 125 g ai/ha): 85
- Plant response rating: Waterhemp_RES1 ([8]; 250 g ai/ha): 90
- Plant response rating: Waterhemp_RES2 ([9]; 16 g ai/ha): 60
- Plant response rating: Waterhemp_RES2 ([9]; 31 g ai/ha): 80
- Plant response rating: Waterhemp_RES2 ([9]; 62 g ai/ha): 80
- Plant response rating: Waterhemp_RES2 ([9]; 125 g ai/ha): 90
- Plant response rating: Waterhemp_RES2 ([9]; 250 g ai/ha): 95

SMILES: CCOc1cc(=O)n(-c2ccc(F)cc2)nc1Cc1ccnc(C(F)(F)F)c1 [Compound 25, 5-ethoxy-2-(4-fluorophenyl)-6-[[2-(trifluoromethyl)-4-pyridinyl]methyl]-3 (2H)-pyridazinone]
- Plant response rating: Surinam Grass ([1]; 8 g ai/ha): 5
- Plant response rating: Surinam Grass ([1]; 16 g ai/ha): 10
- Plant response rating: Surinam Grass ([1]; 31 g ai/ha): 80
- Plant response rating: Surinam Grass ([1]; 62 g ai/ha): 100
- Plant response rating: Surinam Grass ([1]; 125 g ai/ha): 100
- Plant response rating: Corn (corn (Zea mays); Preemergence, 8 g ai/ha): 0
- Plant response rating: Corn (corn (Zea mays); Preemergence, 16 g ai/ha): 10
- Plant response rating: Corn (corn (Zea mays); Preemergence, 31 g ai/ha): 25
- Plant response rating: Corn (corn (Zea mays); Preemergence, 62 g ai/ha): 40
- Plant response rating: Corn (corn (Zea mays); Preemergence, 125 g ai/ha): 35
- Plant response rating: Crabgrass, Brazil ([2]; Preemergence, 8 g ai/ha): 0
- Plant response rating: Crabgrass, Brazil ([2]; Preemergence, 16 g ai/ha): 75
- Plant response rating: Crabgrass, Brazil ([2]; Preemergence, 31 g ai/ha): 98
- Plant response rating: Crabgrass, Brazil ([2]; Preemergence, 62 g ai/ha): 100
- Plant response rating: Crabgrass, Brazil ([2]; Preemergence, 125 g ai/ha): 100
- Plant response rating: Dayflower, VA ([3]; Preemergence, 8 g ai/ha): 0
- Plant response rating: Dayflower, VA ([3]; Preemergence, 16 g ai/ha): 0
- Plant response rating: Dayflower, VA ([3]; Preemergence, 31 g ai/ha): 15
- Plant response rating: Dayflower, VA ([3]; Preemergence, 62 g ai/ha): 20
- Plant response rating: Dayflower, VA ([3]; Preemergence, 125 g ai/ha): 70
- Plant response rating: Foxtail, Green ([4]; 8 g ai/ha): 0
- Plant response rating: Foxtail, Green ([4]; 16 g ai/ha): 5
- Plant response rating: Foxtail, Green ([4]; 31 g ai/ha): 35
- Plant response rating: Foxtail, Green ([4]; 62 g ai/ha): 90
- Plant response rating: Foxtail, Green ([4]; 125 g ai/ha): 100
- Plant response rating: Johnsongrass ([5]; 8 g ai/ha): 0
- Plant response rating: Johnsongrass ([5]; 16 g ai/ha): 0
- Plant response rating: Johnsongrass ([5]; 31 g ai/ha): 10
- Plant response rating: Johnsongrass ([5]; 62 g ai/ha): 35
- Plant response rating: Johnsongrass ([5]; 125 g ai/ha): 65
- Plant response rating: Lambsquarters ([6]; 8 g ai/ha): 65
- Plant response rating: Lambsquarters ([6]; 16 g ai/ha): 98
- Plant response rating: Lambsquarters ([6]; 31 g ai/ha): 100
- Plant response rating: Lambsquarters ([6]; 62 g ai/ha): 100
- Plant response rating: Lambsquarters ([6]; 125 g ai/ha): 100
- Plant response rating: Soybean (soybean (Glycine max); Preemergence, 8 g ai/ha): 0
- Plant response rating: Soybean (soybean (Glycine max); Preemergence, 16 g ai/ha): 0
- Plant response rating: Soybean (soybean (Glycine max); Preemergence, 31 g ai/ha): 0
- Plant response rating: Soybean (soybean (Glycine max); Preemergence, 62 g ai/ha): 20
- Plant response rating: Soybean (soybean (Glycine max); Preemergence, 125 g ai/ha): 30

Reference: patent publication US10202361B2, “Pyridazinones as herbicides” (E I DU PONT DE NEMOURS AND COMPANY, priority 2014, dated 2019)
